Experimental data as given in US11414425B2 (priority 2018, dated 2022).
Read-outs that look alike come from different tables or passages of the source.

Legend:
MAM-treated rats = details: cited from earlier work
GABAAα5 receptor = biological target: T1, GABAAα5 receptor (Rattus norvegicus, UniProt P18508+P19969); test: in vivo; type: in vivo, Long Evans rats
T1 construct: occupancy in the hippocampus (a region of high GABAAα5 receptor density); from tissue; host or cells: rat brain in vivo: hippocampus versus cerebellum
T1 sequence (P19969 32-464): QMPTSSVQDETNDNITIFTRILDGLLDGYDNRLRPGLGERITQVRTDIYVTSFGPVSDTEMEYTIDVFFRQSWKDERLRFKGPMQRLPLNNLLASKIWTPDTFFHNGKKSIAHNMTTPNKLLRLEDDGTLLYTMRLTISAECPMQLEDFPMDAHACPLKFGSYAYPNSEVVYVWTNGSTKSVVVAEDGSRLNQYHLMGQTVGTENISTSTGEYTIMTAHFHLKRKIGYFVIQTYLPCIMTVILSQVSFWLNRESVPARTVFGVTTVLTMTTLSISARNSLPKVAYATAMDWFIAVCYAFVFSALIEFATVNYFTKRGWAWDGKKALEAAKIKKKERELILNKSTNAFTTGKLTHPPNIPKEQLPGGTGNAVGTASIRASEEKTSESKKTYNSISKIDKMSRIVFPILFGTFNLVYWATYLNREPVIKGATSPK
T1 sequence (P18508 39-466): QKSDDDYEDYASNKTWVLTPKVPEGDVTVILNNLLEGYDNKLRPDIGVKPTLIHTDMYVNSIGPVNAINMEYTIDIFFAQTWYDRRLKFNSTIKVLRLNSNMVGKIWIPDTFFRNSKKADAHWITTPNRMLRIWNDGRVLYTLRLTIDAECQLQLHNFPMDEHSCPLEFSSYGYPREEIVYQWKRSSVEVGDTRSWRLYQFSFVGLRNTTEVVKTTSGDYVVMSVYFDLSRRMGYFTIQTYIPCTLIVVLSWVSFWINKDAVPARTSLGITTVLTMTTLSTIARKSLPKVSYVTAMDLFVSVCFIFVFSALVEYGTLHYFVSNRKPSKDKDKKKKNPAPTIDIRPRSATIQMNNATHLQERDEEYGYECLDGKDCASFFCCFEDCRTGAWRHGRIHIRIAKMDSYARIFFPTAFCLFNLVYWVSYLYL
From the text: (§1) Food and water were available ad libitum.

aged-impaired (AI) rats [1] = test: Radial Arm Maze (RAM) behavioral task, spatial memory retention; type: in vivo, rat
From the text: A Radial Arm Maze (RAM) behavioral task is one example of a cognitive test, specifically testing spacial memory (Chappell et al. Neuropharmacology 37: 481-487, 1998). The RAM apparatus consists of, e.g., eight equidistantly spaced arms. A maze arm projects from each facet of a center platform. A food well is located at the distal end of each arm. Food is used as a reward. Blocks can be positioned to prevent entry to any arm. Numerous extra maze cues surrounding the apparatus may also be provided. After habituation and training phases, spatial memory of the subjects may be tested in the RAM under control or test compound-treated conditions. As a part of the test, subjects are pretreated before trials with a vehicle control or one of a range of dosages of the test compound. At the beginning of each trial, a subset of the arms of the eight-arm maze is blocked. Subjects are allowed to obtain food on the unblocked arms to which access is permitted during this initial “information phase” of the trial. Subjects are then removed from the maze for a delay period, e.g., a 60 second delay, a 15 minute delay, a one-hour delay, a two-hour delay, a six hour delay, a 24 hour delay, or longer) between the information phase and the subsequent “retention test,” during which the barriers on the maze are removed, thus allowing access to all eight arms. […] The identity and configuration of the blocked arms vary across trials. The number of “errors” the subjects make during the retention test phase is tracked. An error occurs in the trial if the subjects entered an arm from which food had already been retrieved in the pre-delay component of the trial, or if it re-visits an arm in the post-delay session that had already been visited. A fewer number of errors would indicate better spatial memory. The number of errors made by the test subject, under various test compound treatment regimes, can then be compared for efficacy of the test compound in treating cognitive impairment associated with CNS disorders.
The effects of methyl 3,5-diphenylpyridazine-4-carboxylate on the in vivo spatial memory retention of aged-impaired (AI) rats were assessed in a Radial Arm Maze (RAM) behavioral task using vehicle control and four different dosage levels of methyl 3,5-diphenylpyridazine-4-carboxylate (0.1 mg/kg, 0.3 mg/kg, 1 mg/kg and 3 mg/kg, ip). RAM behavioral tasks were performed on eight AI rats. All five treatment conditions (vehicle and four dosage levels) were tested on all eight rats.
The RAM apparatus used consisted of eight equidistantly-spaced arms. An elevated maze arm (7 cm width×75 cm length) projected from each facet of an octagonal center platform (30 cm diameter, 51.5 cm height). Clear side walls on the arms were 10 cm high and were angled at 65° to form a trough. […]

aged-impaired (AI) rats [2] = test: Morris water maze behavioral task; type: in vivo, rat; details: 100 μg ICV
From the text: Another cognitive test that may be used to assess the effects of a test compound on the cognitive impairment of a CNS disorder model animal is the Morris water maze. A water maze is a pool surrounded with a novel set of patterns relative to the maze. […] The subject is trained to locate a submerged escape platform hidden underneath the surface of the pool. During the training trial, a subject is released in the maze (pool) from random starting positions around the perimeter of the pool. The starting position varies from trial to trial. […] After a delay period following the last training trial, a retention test in the absence of the escape platform is given to assess spatial memory. The subject's level of preference for the location of the (now absent) escape platform, as measured by, e.g., the time spent in that location or the number of crossings of that location made by the mouse, indicates better spatial memory, i.e., treatment of cognitive impairment. The preference for the location of the escape platform under different treatment conditions, can then be compared for efficacy of the test compound in treating cognitive impairment associated with CNS disorders.
The effects of 6,6 dimethyl-3-(3-hydroxypropyl)thio-1-(thiazol-2-yl)-6,7-dihydro-2-benzothiophen-4(5H)-one on the in vivo spatial memory retention of aged-impaired (AI) rats were assessed in a Morris water maze behavioral task. A water maze is a pool surrounded with a novel set of patterns relative to the maze.
Cognitively impaired aged rats were implanted unilaterally with a cannula into the lateral ventricle. Stereotaxic coordinates were 1.0 mm posterior to bregma, 1.5 mm lateral to midline, and 3.5 mm ventral to the skull surface. After about a week of recovery, the rats were pre-trained in a water maze for 2 days (6 trials per day) to locate a submerged escape platform hidden underneath the surface of the pool, in which the escape platform location varied from day to day. No intracerebroventricular (ICV) infusion was given during pre-training.
After pre-training, rats received ICV infusion of either 100 μg 6,6 dimethyl-3-(3-hydroxypropyl)thio-1-(thiazol-2-yl)-6,7-dihydro-2-benzothiophen-4(5H)-one (n=6) in 5 μl DMSO or vehicle DMSO (n=5) 40 min prior to water maze training and testing. Training consisted of 8 trials per day for 2 days where the hidden escape platform remained in the same location. Rats were given 60 seconds to locate the platform with a 60 seconds inter-trial interval. The rats were given a probe test (120 seconds) 24 hr. after the end of training where the escape platform was removed. During the training, there were 4 blocks, where each block had 4 training trials.
During a test trial 24 hr. after training, the escape platform was removed. […]

α5-containing GABAAR = α5-containing GABAAR (Homo sapiens, UniProt P18507+P31644); details: (EC20); cited from earlier work
Chain of α5-containing GABAAR (P31644 32-462): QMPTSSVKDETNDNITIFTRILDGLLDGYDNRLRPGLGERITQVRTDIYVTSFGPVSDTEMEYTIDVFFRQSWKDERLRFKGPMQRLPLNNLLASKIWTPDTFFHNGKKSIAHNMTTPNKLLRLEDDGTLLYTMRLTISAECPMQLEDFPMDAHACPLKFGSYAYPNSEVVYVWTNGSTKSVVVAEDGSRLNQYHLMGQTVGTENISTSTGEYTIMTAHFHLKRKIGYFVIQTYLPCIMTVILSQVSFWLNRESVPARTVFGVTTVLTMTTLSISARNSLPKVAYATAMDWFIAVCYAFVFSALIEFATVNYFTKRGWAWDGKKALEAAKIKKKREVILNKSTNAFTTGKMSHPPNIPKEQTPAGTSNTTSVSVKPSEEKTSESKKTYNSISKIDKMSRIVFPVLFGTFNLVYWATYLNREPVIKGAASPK
Chain of α5-containing GABAAR (P18507 40-475): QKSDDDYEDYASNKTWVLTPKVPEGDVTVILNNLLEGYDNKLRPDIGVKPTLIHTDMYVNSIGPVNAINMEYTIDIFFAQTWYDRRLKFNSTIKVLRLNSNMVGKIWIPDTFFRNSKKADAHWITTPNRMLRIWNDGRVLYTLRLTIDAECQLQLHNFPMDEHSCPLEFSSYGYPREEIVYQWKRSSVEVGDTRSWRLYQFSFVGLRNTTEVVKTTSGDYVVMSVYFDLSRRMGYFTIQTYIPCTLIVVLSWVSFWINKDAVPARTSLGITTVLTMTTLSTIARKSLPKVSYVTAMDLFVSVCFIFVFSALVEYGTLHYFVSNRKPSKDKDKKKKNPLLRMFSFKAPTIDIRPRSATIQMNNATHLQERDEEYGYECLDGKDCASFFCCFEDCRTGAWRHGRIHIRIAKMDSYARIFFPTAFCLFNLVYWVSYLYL
Chain of α5-containing GABAAR (P28472 26-473, further chain): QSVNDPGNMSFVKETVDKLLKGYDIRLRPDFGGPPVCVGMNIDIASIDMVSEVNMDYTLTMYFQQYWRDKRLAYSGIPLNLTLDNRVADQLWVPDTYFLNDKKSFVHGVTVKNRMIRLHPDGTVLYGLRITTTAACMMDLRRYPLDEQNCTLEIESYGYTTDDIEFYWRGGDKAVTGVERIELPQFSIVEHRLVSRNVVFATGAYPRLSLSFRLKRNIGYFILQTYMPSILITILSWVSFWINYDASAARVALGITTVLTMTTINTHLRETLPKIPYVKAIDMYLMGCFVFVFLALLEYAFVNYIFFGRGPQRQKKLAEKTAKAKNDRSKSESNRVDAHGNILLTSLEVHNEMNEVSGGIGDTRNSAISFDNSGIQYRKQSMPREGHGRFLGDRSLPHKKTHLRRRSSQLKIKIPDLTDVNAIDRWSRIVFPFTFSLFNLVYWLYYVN

[3] = type: in vivo, Long Evans rats; details: i.v.
Procedure: as §1
For plasma exposures, blood samples were centrifuged at 14000 rpm for 16 minutes. After centrifuging, 50 ul of supernatant (plasma) from each sample was added to 200 μl of acetonitrile plus 0.1% formic acid. […] Samples were sonicated for 5 minutes in an ultrasonic water bath, followed by centrifugation for 30 minutes, at 16000 RPM. 100 ul of supernatant was removed from each sample vial and placed in a new glass auto sample vial, followed by the addition of 300 μl of sterile water (pH 6.5).
Additional studies were conducted in aged Long-Evans rats in order to determine the exposures at the behaviorally relevant doses in the cognition studies. Exposure in young Long-Evans rats was also determined to bridge with the receptor occupancy studies that were conducted in young Long-Evans rats. Exposures in young and aged Long-Evans rats were relatively similar (Table 4, FIG. 4).

[4] = probe test 24 hr. after training

Compound: C#Cc1ccc2c(c1)C(c1ccccc1F)=N[C@H](C)c1c(C(=O)OCC)ncn1-2 [SH-053-2′F—R—CH3]
- number of spontaneously active DA neurons in the ventral tegmental area (VTA) (MAM-treated rats; MAM rats, systemic and infused into ventral HPC): reduces the number of spontaneously active DA neurons in the ventral tegmental area (VTA) of MAM rats to levels observed in saline-treated rats
- locomotor response to amphetamine (MAM-treated rats; MAM-treated rats): reduced
- cortical-evoked responses of HPC neurons (MAM-treated rats; saline-treated and MAM-treated animals): diminished cortical-evoked responses

Compound: CCOC(=O)c1ncn2c1Cn1c(C)nnc1-c1cc(OC)ccc1-2 [ethyl 3-methoxy-7-methyl-9H-benzo[f]imidazo[1,5-a][1,2,4]tri]
- effect on binding of Ro 15-4513 in hippocampus (GABAAα5 receptor; 0.01-10 mg/kg, i.v.): reduced Ro 15-4513 binding in hippocampus
- effect on binding/levels of Ro 15-4513 in cerebellum (GABAAα5 receptor; 0.01-10 mg/kg, i.v.): without affecting cerebellum levels of Ro 15-4513
- GABAA α5 receptor occupancy (GABAAα5 receptor; 10 mg/kg, i.v.): > 90%
- memory performance relative to vehicle control treatment (aged-impaired (AI) rats [1]; 3 mg/kg, four-hour delay RAM, t(7)=4.13, p=0.004, or t(7)=3.08, p=0.018): significantly improved memory performance
- memory performance relative to vehicle control treatment (aged-impaired (AI) rats [1]; 10 mg/kg, four-hour delay RAM, t(7)=2.82, p=0.026): significantly improved memory performance

Compound: CC1(C)CC(=O)c2c(SCCCO)sc(-c3nccs3)c2C1 [6,6 dimethyl-3-(3-hydroxypropyl)thio-1-(thiazol-2-yl)-6,7-dihydro-2-benzothiophen-4(5H)-one]
- time to find the escape platform (aged-impaired (AI) rats [2]; block 1 of training): about 24 seconds
- time to find the escape platform (aged-impaired (AI) rats [2]; block 4 of training): about 9.6 seconds
- number of crossings of target annulus vs opposite annulus (aged-impaired (AI) rats [2]; [4]): crossed the “target annulus” more often
- time in target annulus vs opposite annulus (aged-impaired (AI) rats [2]; [4]): spent significantly more time in the target annulus

Compound: COC(=O)c1c(-c2ccccc2)cnnc1-c1ccccc1 [Methyl 3,5-diphenylpyridazine-4-carboxylate, reference compound]
- GABAA α5 receptors occupied (GABAAα5 receptor; at exposures behaviorally active in aged-impaired rats, hippocampus): about 32%
- receptor occupancy ED50, ratio method (GABAAα5 receptor; i.v., hippocampus/cerebellum ratio): 1.8 mg/kg
- receptor occupancy at 10 mg/kg (GABAAα5 receptor; rat, iv, 10 mg/kg, i.v., read-out: GABAA α5 receptor occupancy): > 90%
- α5 in vitro efficacy (α5-containing GABAAR): +27
- increase in hippocampal exposure ([3]; dose from 0.1 to 1 mg/kg): 12 fold
- increase in hippocampal exposure ([3]; dose from 1 to 10 mg/kg): ~5 fold
- increase in plasma exposure ([3]; dose from 1 to 10 mg/kg): 12 fold
- memory performance relative to vehicle control treatment (aged-impaired (AI) rats [1]; 3 mg/kg ip, two-hour delay RAM, t(7)=4.233, p=0.004): significantly improved memory performance
- average no. of errors ± standard error of the mean (SEM), retention test (aged-impaired (AI) rats [1]; 3 mg/kg ip, two-hour delay, AI rats): 1.31±0.40
